How the values were obtained:
[1] = tested on: E. multilocularis metacestode vesicles; experiment: Phosphoglucose isomerase (PGI) release assay (damage-marker release) on metacestode vesicles; assay type: cell-based, Echinococcus multilocularis; conditions: 10 μM; for PGI d5 (relative PGI release): 5 days; for PGI d12 (relative PGI release): 12 days
Procedure: In order to quantify the drug-induced damage on whole metacestode vesicles, phosphoglucose isomerase (PGI) assay was performed as described previously ([Stadelmann et al., 2010]) with few adaptations published recently ([Kaethner et al., 2023]). In short, 8 to 12 weeks-old metacestode vesicles were purified using 2 % sucrose with subsequent washes in PBS. Metacestode vesicles were diluted in two volumes of DMEM without phenol red containing penicillin (100 U/mL) and streptomycin (100 μg/mL). […] 0.1 % DMSO was used as a negative solvent control and 0.1 % Triton X-100 was used as a positive total damage control. Metacestode vesicles were incubated under a humid, 5 % CO2 atmosphere at 37 °C. After five and twelve days, supernatant was taken and pictures were made using a Nikon SMZ18 stereo microscope (Nikon, Basel, Switzerland) at 7.5 × magnification. PGI activity in the supernatants was measured on a HIDEX Sense microplate reader (Hidex, Turku, Finland). The corresponding values of the DMSO controls were subtracted from the values of the compounds and then PGI activity was calculated relative to 0.1 % Triton X-100. […] IC50 values were calculated applying the 3 parameter Weibull type 1 in R for each of the three independent experiments ([Ritler et al., 2020]).

[2] = tested on: E. multilocularis metacestode vesicles; experiment: Metacestode vesicle viability assay (ATP, CellTiter-Glo); assay type: cell-based, Echinococcus multilocularis
Procedure: Viability was assessed after 12 days using the same metacestode vesicles as for the PGI release assay. Triton X-100 was added to each well to a final concentration of 0.1 %. Subsequently the metacestode vesicles were broken mechanically and 50 μL of the supernatant was mixed with 50 μL of CellTiter-Glo® buffer (Promega, Dübendorf, Switzerland). Measurements were performed on a HIDEX Sense microplate reader.

[3] = overview screen, singlets, relative to 0.1 % Triton X-100, DMSO subtracted
[4] = overview screen, 10 μM, singlets, 12 days, relative to DMSO control
[5] = confirmation screen, triplicates, mean
[6] = confirmation screen, 10 μM, triplicates, mean, 12 days

Structure (SMILES) | PGI d5 (relative PGI release) [1, 3] [%] | PGI d12 (relative PGI release) [1, 3] [%] | Viability d12 (relative viability) [2, 4] [%] | PGI d5 (relative PGI release) [1, 5] [%] | PGI d12 (relative PGI release) [1, 5] [%] | Viability d12 (relative viability) [2, 6] [%] | Viability d12 (relative viability) ([2]; 10 µM) [%]
Nc1nnc(-c2ccc(Cl)cc2)s1 [MMV046261] | 0.5147 | 3.499 | 11.5226 |  |  |  | 
NC(=O)c1c(N)sc2c1CCCCC2 [MMV056052] | 0.2417 | 3.2439 | 78.9817 |  |  |  | 
CC1CN(c2ncnc3c2c(-c2ccccc2)cn3-c2ccc(F)cc2)CC(C)O1 (stereo not drawn) [MMV093250] | 0.6968 | 49.8105 | 6.513 | 0.08 | -0.45 | 29.29 | 
COc1cc(NS(=O)(=O)c2ccc(C)cc2)c2ncccc2c1 [MMV098836] | -0.2103 | 2.3899 | 72.5053 |  |  |  | 
Nc1c(C(=O)NCc2ccco2)c2nc3ccccc3nc2n1CCN1CCCCC1 [MMV099714] | 2.984 | 44.8288 | 63.8129 |  |  |  | 
COc1cc2c(O)c3c(c(-c4ccc5c(c4)OCO5)c2cc1OC)C(=O)OC3 [MMV102270] | -1.791 | 18.1463 | 116.78 |  |  |  | 
O=C(Nc1nnc(-c2ccc(Cl)cc2)o1)c1nc2ccccc2s1 [MMV102833] | 3.0788 | 1.422 | 141.762 |  |  |  | 
CC(C)Nc1ncnc2c1cnn2-c1ccc(Cl)cc1 [MMV108465] | -2.878 | 28.117 | 65.6735 |  |  |  | 
CCOc1ccc(C(=O)NCCc2ccccc2)cc1 [MMV124656] | -0.3368 | 10.9951 | 194.706 |  |  |  | 
Clc1cccc(-c2nnc(-c3ccccc3)o2)c1 [MMV141011] | -1.462 | -13.7141 | 31.8959 |  |  |  | 
NC1C2CC3CC(C2)CC1C3 (stereo not drawn) [MMV180402] | -0.5217 | -14.4779 | 111.504 |  |  |  | 
O=C(CC1Sc2ncnn2C1=O)Nc1ccc(Br)cc1 (stereo not drawn) [MMV214956] | -1.614 | -20.0728 | 47.1606 |  |  |  | 
O=C(O)CSc1cc(NS(=O)(=O)c2cccc3cccnc23)c2ccccc2c1O [MMV218827] | -0.1296 | 0.539 | 73.5027 |  |  |  | 
Cc1ccc(S(=O)(=O)Nc2cccc3cccnc23)cc1 [MMV233495] | 2.157 | 26.0665 | 70.919 |  |  |  | 
O=C(O)c1cc(-c2ccc(Br)cc2)nc2ccc(Cl)cc12 [MMV247764] | 0.5774 | -0.4305 | 115.677 |  |  |  | 
O=S(=O)(Nc1ccc(O)cc1)c1cccc2cccnc12 [MMV251679] | 0.1251 | -17.8593 | 83.9227 |  |  |  | 
CCN1CCN(Cc2nc3ccc([N+](=O)[O-])cc3c(=O)n2-c2ccccc2F)CC1 [MMV275100] | 0.006823 | -0.1551 | 107.175 |  |  |  | 
Oc1ccc2[nH]c(-c3ccccc3)nc2c1 [MMV292173] | -3.6461 | 2.293 | 56.2358 |  |  |  | 
COc1ccc(CNC(=O)C(NS(=O)(=O)c2ccc3nc(C)sc3c2)C(C)C)cc1 (stereo not drawn) [MMV303733] | -2.8306 | -9.3435 | 97.8993 |  |  |  | 
COc1ccc(NC(=O)c2cc3ccccn3n2)cc1 [MMV374187] | 0.2305 | 3.37 | 96.2395 |  |  |  | 

Structure (SMILES) | PGI d5 (relative PGI release) [1, 3] [%] | PGI d12 (relative PGI release) [1, 3] [%] | Viability d12 (relative viability) [2, 4] [%] | PGI d5 (relative PGI release) [1, 5] [%] | PGI d12 (relative PGI release) [1, 5] [%] | Viability d12 (relative viability) [2, 6] [%] | Viability d12 (relative viability) ([2]; 10 µM) [%]
N=c1n(CCN2CCCCC2)c2ccccc2n1CC(O)COc1ccc(Cl)cc1Cl (stereo not drawn) [MMV394033] | 6.943 | 70.607 | 9.628 | 0.57 | 0.65 | 90.34 | 
Oc1cc(-c2cccc3ccccc23)[nH]n1 [MMV422940] | -1.4338 | -25.9471 | 50.1817 |  |  |  | 
O=C(O)C(Cc1c[nH]c2ccccc12)N1C(=O)c2ccccc2C1=O (stereo not drawn) [MMV452821] | 1.873 | 0.986 | 132.36 |  |  |  | 
NC(=O)c1ccccc1NC(=O)c1ccc(C(=O)Nc2ccccc2C(N)=O)cc1 [MMV508427] | -1.548 | -12.1939 | 83.3301 |  |  |  | 
Oc1c(C(Nc2ccccn2)c2ccccc2)ccc2cccnc12 (stereo not drawn) [MMV565773] | -0.6323 | -6.242 | 113.31 |  |  |  | 
O=C(c1cc(O)nc2ccccc12)N1CCN(c2ccccc2)CC1 [MMV596723] | 0.1357 | -19.4413 | 136.964 |  |  |  | 
COc1ccc(-n2cnc3cc(NCc4ccco4)ccc32)cc1 [MMV617332] | 0.2921 | -0.1496 | 117.278 |  |  |  | 
CN(Cc1ccc(C(C)(C)C)cc1)Cc1cccc2ccccc12.Cl [MMV637104] | -1.862 | -24.2411 | 73.8114 |  |  |  | 
O=c1[nH]cnc2c1ncn2[C@H]1CC[C@@H](CO)O1 [MMV637306] | -0.8027 | 5.98 |  |  |  |  | 229.844
Nc1nc(F)nc2c1ncn2[C@@H]1O[C@H](CO)[C@@H](O)[C@@H]1O [MMV637413] | -0.694 | 1.228 | 168.919 |  |  |  | 
CCC(C)n1ncn(-c2ccc(N3CCN(c4ccc(OCC5COC(Cn6cncn6)(c6ccc(Cl)cc6Cl)O5)cc4)CC3)cc2)c1=O (stereo not drawn) [MMV637528] | -2.417 | -24.1326 | 37.4902 |  |  |  | 
CC(=O)N1CCN(c2ccc(OC[C@@H]3CO[C@@](Cn4ccnc4)(c4ccc(Cl)cc4Cl)O3)cc2)CC1 [MMV637533] | 1.26 | -24.3929 | 224.858 |  |  |  | 
CC1CCc2c(N3CCC(O)CC3)c(F)cc3c(=O)c(C(=O)O)cn1c23 (stereo not drawn) [MMV637659] | -2.748 | -5.473 |  |  |  |  | 137.188
CC(N)C12CC3CC(CC(C3)C1)C2 (stereo not drawn) [MMV637855] | 0.08745 | -0.5462 | 63.7477 |  |  |  | 
CC(C)(C)NC(=O)[C@@H]1C[C@@H]2CCCC[C@@H]2CN1C[C@@H](O)[C@H](Cc1ccccc1)NC(=O)[C@H](CC(N)=O)NC(=O)c1ccc2ccccc2n1 [MMV637879] | -0.1506 | -17.9883 |  |  |  |  | 108.384
C=C(C)[C@@H]1CC[C@]2(C(=O)O)CC[C@]3(C)[C@H](CC[C@@H]4[C@@]5(C)CC[C@H](O)C(C)(C)[C@@H]5CC[C@]43C)[C@@H]12 [MMV638198] | -0.508 | -0.6563 | 121.139 |  |  |  | 
COC1CC2CCC(C)C(O)(O2)C(=O)C(=O)N2CCCCC2C(=O)OC(C(C)CC2CCC(OCCO)C(OC)C2)CC(=O)C(C)/C=C(\C)C(O)C(OC)C(=O)C(C)CC(C)/C=C/C=C/C=C/1C (stereo not drawn) [MMV639951] | -0.3944 | -20.0049 | 85.7507 |  |  |  | 
O=C(O)c1ccc(-n2nc(-c3ccccc3O)nc2-c2ccccc2O)cc1 [MMV640014] | -1.416 | -24.5374 | 145.619 |  |  |  | 
Oc1cccc(C(Nc2nccs2)c2ccc3cccnc3c2O)c1 (stereo not drawn) [MMV642550] | 8.475 | 88.2133 | 17.7096 | 0.17 | 0.81 | 142.26 | 

From article PMC12410356 (International Journal for Parasitology: Drugs and Drug …, 2025)
